# Where two headings read alike, the source gives them in different places.
# Experiments:
# Huh-7 cells = experiment: Cell proliferation assay (MTT), Huh-7; assay type: cell-based; conditions: Homo sapiens
# How it was run: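 HCC lines cultured in DMEM with 10% FBS and streptomycin; cytotoxicity measured by MTT method as previously described.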
# HepG2 cells = experiment: Autophagy assays in HepG2 cells (TEM, Western blotting, GFP-LC3 puncta); assay type: cell-based
# Procedure: Several reports have characterized RalA/B potential regulatory roles in autophagy ([Zhang et al., 2019]; [Pang et al., 2020]; [Zhang et al., 2020]). Considering the dual effect of HCC autophagy, we assessed changes in HepG2 cell autophagy levels after the addition of 0.5 or 2.0 μM of 4p, before incubation. Based on HepG2 cells’ TEM images with or without 4p (Figure 5B), autophagy vacuoles per cell decreased in the 4p-treated group (p < 0.01). After 4p treatments, LC3-II and ATG5 protein levels declined and SQSTM1 increased. […] In GFP-LC3–transfected HepG2 cells, cytoplasm LC3 fluorescent puncta numbers also declined after 4p treatments. […] The in vivo antitumor capacities of 4p were determined on a HepG2 subcutaneous xenograft model. The 4p intraperitoneal injections were set to 15 mg/kg and 60 mg/kg, according to in vitro results. […] The potential 4p molecular mechanisms were further validated using immunofluorescence and IHC analyses of tissue sections stained by antibodies against TUNEL, Ki-67, RalA, LC3-II, and SQSTM1. […] Therefore, the in vivo results were consistent with in vitro experiments. […]
# The autophagy assay is relied on HepG2 cells transfected by GFP-LC3. In brief, the HepG2 cells after transfecting are processed by saline or compound 4p for 6 h, after that the cells are going to fix by paraformaldehyde and the phenomenon of autophagosome punctures can be observed through the accumulated of GFP-LC3 under laser confocal microscopy.
# 2. Western blotting analysis
# For western blotting, the extracts of total protein from each sample were treated in accordance with the method we described previously. In short, the total proteins were loaded into the SDS-PAGE gel and separated through the different of their molecular weight in electrophoresis, after that the separated proteins were shifted into a PVDF membrane (Millipore, Burlington, MA, USA) and incubated through corresponding membrane react pathways. The resulted membranes reacted with major antibodies and HRP (horseradish peroxidase)-conjugated secondary antibodies. The expression profiles of target proteins can be identified through an enhanced chemiluminescence (ECL) substrate. […]
smiles,measurement,setting,value
"COc1ccc(S(=O)(=O)NC2=C(C#N)C(c3ccc(C(F)(F)F)cc3)c3c(C)nn(-c4ccccc4)c3O2)cc1 (stereo not drawn) [4p, N-(5-cyano-3-methyl-1-phenyl-4-(4-(trifluoromethyl)phenyl)-1,4-dihydropyrano[2,3-c]-pyrazol-6-yl)-4-methoxybenzenesulfonamide]",IC50,"Huh-7 cells; Table 1, cell proliferation inhibition, read-out: IC50 (μM) Huh7",4.31 ± 0.39 µM
same,IC50,"Huh-7 cells; Table 2, average of at least three independent replicates ± SD, read-out: Anti-proliferative activities (IC50, μM) Huh-7",4.31 ± 0.39 µM
same,cytoplasm LC3 fluorescent puncta numbers,"HepG2 cells; GFP-LC3–transfected HepG2 cells, 2.0 μM",declined
same,LC3-II and ATG5 protein levels (Western blotting),"HepG2 cells; HepG2, 0.5 or 2.0 μM",declined
same,SQSTM1 protein level (Western blotting),"HepG2 cells; HepG2, 0.5 or 2.0 μM",increased
same,autophagy vacuoles per cell (TEM),"HepG2 cells; HepG2, 4p-treated group, p < 0.01",decreased

# Reference: paper PMC8634879, “Design, Synthesis, and Biological Evaluation of Pyrano[2,3-c]-pyrazole–Based RalA Inhibitors Against Hepatocellular Carcinoma” (Frontiers in Chemistry, 2021)
